What was measured:
α-synuclein (αSyn) [1] = target: T1, α-synuclein (αSyn) (Homo sapiens, UniProt P37840); test: split Gaussia luciferase oligomerization assay; also FRET oligomerization, ThT fibrillization, HT-CM-SPR hit (tethered); type: biochemical; design: gene SNCA; αSyn-GLuc1 and αSyn-GLuc2 (split Gaussia luciferase fragment fused to the C-terminus of αSyn); monomeric αSyn in SPR and fibrillization
α-synuclein (αSyn) [2] = target: T1, α-synuclein (αSyn); test: split Gaussia luciferase oligomerization assay; also FRET oligomerization, HT-CM-SPR hit (tethered); type: biochemical; design: gene SNCA; αSyn-GLuc1 and αSyn-GLuc2 (split Gaussia luciferase fragment fused to the C-terminus of αSyn); monomeric αSyn in SPR

| IC50 (α-synuclein (αSyn) [1]) [µM] | IC50 (α-synuclein (αSyn) [2]) [µM] | Structure (SMILES) |
| --- | --- | --- |
| 290 | – | CNC(=O)CN(C(=O)Cc1noc2ccccc12)C(C)c1ccc(Cl)cc1 (stereo not drawn) [compound 582032, 582032] |
| 10.5 | – | CNC(=O)c1cc(O)ccc1N [compound 576755, 576755] |
| – | 104 | Cc1c(-c2csc(NC(C(N)=O)C3CCNCC3)n2)sc2ccccc12 (stereo not drawn) [compound 573437, 573437] |

From PMC6861283, “Novel Small Molecules Targeting the Intrinsically Disordered Structural Ensemble of α-Synuclein Protect Against Diverse α-Synuclein Mediated Dysfunctions” (Scientific Reports, 2019)
